2 molecules from patent publication US20090326032A1, “PHARMACEUTICAL COMPOSITIONS COMPRISING NK1 RECEPTOR ANTAGONISTS AND SODIUM CHANNEL BLOCKERS” (GLAXO GROUP LIMITED, priority 2007, published 2009) can be followed below.

Data set [1] in a line: blood and brain drug concentrations in satellite animals. The data set is classed as in vivo, rat. The conditions noted are these: for concentration at 60 min: CD, rat, intraperitoneal.
The subject of data set [2] is tonic hindlimb extensor seizures. Put plainly: threshold for tonic hindlimb extensor seizures, corneal electroshock, 'up and down' method (CC50). The class given is in vivo, rat. The conditions noted are these: ENa7 3 mg/kg s.c. alone, male CD rats. Here is the method:
This work was conducted in compliance with the Home Office Guidance on the operation of the Animals (Scientific Procedures) Act 1986 and GlaxoSmithKline ethical standards. Male CD rats (100-145 g) were supplied by Charles River, UK. Animals were group housed (6 animal per cage) with free access to food (Standard rodent chow; Harlan, UK) and water under a 12 h light/dark cycle (lights on at 0700 h). A period of at least one week between arrival at GSK and the study was allowed in all cases.
Animals were administered a test compound at the appropriate dose, route and pre-treatment time and returned to their home cage. Testing occurred in a separate room from that used for housing. […] Seizure threshold was determined using the ‘up and down’ method of Kimball et al. (1957)(Kimball A W, Burnett W T Jr, Doherty D G. (1957) Radiat Res. 7(1):1-12). […]
All doses were calculated as base. […]
Induction of seizure is measured as an all-or-nothing effect scored as either present (+) or absent (0) for each animal. […] Drug effects were calculated as the % change in CC50. Significant differences between drug-treated animals and appropriate vehicle treated groups were assessed according to the methods of Litchfield and Wilcoxon (1949). […]

Counter-ions that a name gives are not always drawn. Like-named read-outs stand apart in the source and are kept apart here.

Take `COc1ccc(-n2nnnc2C(F)(F)F)cc1CN[C@H]1CCCN[C@H]1c1ccccc1` [ENK6, [2-Methoxy-5-(5-trifluoromethyl-tetrazol-1-yl)-benzyl]-([2S,3S]-2-phenyl-piperidin-3-yl)-amine dihydrochloride]: the concentration at 60 min turned out to be 558 ng/mL in data set [1] (blood, 30 mg/kg, ENK6 30 mg/kg, ENa7 veh, n = 1, read-out: Blood ENK6); 456 ng/mL in data set [1] (blood, ENK6 30 mg/kg + ENa7 1 mg/kg, n = 2, read-out: Blood ENK6); 1210 ng/mL in data set [1] (blood, ENK6 30 mg/kg + ENa7 3 mg/kg, n = 2, read-out: Blood ENK6); 1260 ng/g in data set [1] (brain, 30 mg/kg, ENK6 30 mg/kg, ENa7 veh, n = 1, read-out: Brain ENK6); 1040 ng/g in data set [1] (brain, ENK6 30 mg/kg + ENa7 1 mg/kg, n = 2, read-out: Brain ENK6); 4800 ng/g in data set [1] (brain, ENK6 30 mg/kg + ENa7 3 mg/kg, n = 2, read-out: Brain ENK6).
Turning to `CN1CC[C@]2(CC[C@H](c3ccc(OCc4ccccc4F)cc3)N2)C1=O.Cl` [ENa7, (2R,5R)-2-(4-{[(2-Fluorophenyl)methyl]oxy}phenyl)-7-methyl-1,7-diazaspiro[4.4]nonan-6-one hydrochloride], the seizure threshold entry in data set [2] is “robust and significant increase”. In data set [1] (blood and brain, with vs without ENK6 30 mg/kg), the “concentration of ENa7 in the presence of the NK1 antagonist” value is given as “No increase”.
